Measured values: US20260069534A1, “ORAL DELIVERY OF ACTIVE COMPOUNDS FOR TREATING GLYCOGEN STORAGE DISEASES” (LYOTROPIC DELIVERY SYSTEMS LTD., priority 2022, published 2026)

Key:
mice = assay: 14-day safety study in mice; format: in vivo; conditions: 14-day study
Procedure: Pharmacokinetically, subcutaneously injected in mice, compound GHF-201 had high dwell time and persistence (>3 h) in the liver, intermediate levels and persistence in brain and heart (1 h) and negligible distribution to the muscle. […] The ameliorative effect on extension reflex is especially important since the patient correlate is pyramidal tetraparesis or upper motor neuron signs which are one of the main neurological deficiencies in APBD patients.

[1] = Pharmacokinetic profile in APBD modeling mice, IV 250 mg/kg; conditions: in vivo
Procedure: FIGS. 9A-9C are pharmacokinetic profiles of Compound GHF-201 administered per os in formulation LDS-C to APBD patient 1 (FIG. 9A) and IV at 250 mg/kg to n=3 APBD modeling mice (FIG. 9B). Active ingredient doses in days 1, 2, and 3 were 170 mg, 255 mg, and 340 mg, respectively. Encircled in A, values blown up in FIG. 9C.
(§1) Compound GHF-201 was administered to APBD modeling mice as a 5% DMSO solution, IV injected twice a week at a dose of 250 mg/kg, equivalent to a daily dose of 70 mg/kg. Daily injection was avoided due to the relatively long duration of treatment (6 months), which might have led to excessive scarring. Following positive results in the murine model, compound GHF-201 was administered to two APBD patients as a part of a 3-day oral dose escalation study, during which clinical safety and pharmacokinetic profiles were determined.
Following the FDA human equivalent dose calculation, mouse dose can be converted to human dose by dividing by 12. […] Divided by 12, 4,700 ng/mL yields 392 ng/mL. […] Therefore, it was assumed that a human equivalent, or higher, dose in patients is at least as effective as the equivalent dose in mice.

[2] = Tissue penetration / distribution in APBD model mice (LC-MS/MS); format: in vivo
Procedure: FIGS. 8A-8B show tissue penetration test results in APBD model mice for Compound GHF-201 in non-formulated form (FIG. 8A) and formulated in LDS-C formulation (FIG. 8B). For pharmacokinetic analysis, 100 μl serum as well as brain, kidney, hind limb quad muscle, heart, liver, and spleen tissues were collected, homogenized, and extracted with acetonitrile following established guidelines (Kapetanovic et al, 2006). Calibration curves were made with 0, 1, 10, 100, and 1,000 ng/ml GHF-201 in 1 mg/ml solutions of 4-tert-butyl-2-(4H-1,2,4-triazol-4-yl) phenol (ChemBridge) as internal standard (IS). Tissue samples were then dissolved in 1 mg/ml IS solutions and spiked with 0-1,000 ng/ml GHF-201 to generate standard curves from which tissue levels of GHF201 were determined. Samples were analyzed by the LC-MS/MS Sciex Triple Quad™ 5500 mass spectrometer.
Gbeys/ys mice injected subcutaneously with 250 mg/kg GHF-201 were sacrificed 30, 60, 90, and 210 min post injection, and the indicated tissues were removed, as well as 100 μL of serum drawn. […] Results obtained from n=3 mice at each time point.
The distribution and kinetic parameters of GHF-201 was assessed in different tissues.

[3] = Pharmacokinetics, 3-day oral dose escalation study in APBD patients; format: in vivo, human; conditions: for Cmax: human, plasma, oral, 340 mg, per os in formulation LDS-C, 170, 255, 340 mg on days 1, 2, 3
Procedure: as §1
Blood was drawn during three consecutive days according to the following regime—pre-administration and 0.5 h, 1 h. 1.5 h, 2 h, and 4 h post-administration. Compound GHF-201 was administered as formulation LDS-C. 7.15% Compound GHF-201. Active ingredient doses were 170 mg on the first day, 255 mg on the second day, and 340 mg on the third day.
Following blood drawing, plasma was separated by centrifugation (up to 1 h from drawing) at 2000 g for 10 min. at 4° C. Compound GHF-201 levels in plasma (supernatant) samples were determined by LC-Mass Spectrometry (LC-MS/MS) using Sciex Triple Quad™ 5500 mass spectrometer. 100 μl of plasma were collected and extracted in 500 μl acetonitrile solution (acetonitrile/water 1:1 v/v). Calibration curves were made with 0.1, 10, 100, and 1000 ng/ml compound GHF-201 in 1 mg/ml solutions of 4-tert-butyl-2-(4H-1,2,4-triazol-4-yl) phenol (ChemBridge) as internal standard (IS). The samples were dissolved in 1 mg/ml IS solutions and spiked with 0-1000 ng/ml of compound GHF-201 to generate standard curves from which plasma levels of compound GHF-201 were determined.

[4] = subcutaneously injected in mice

COCCN(Cc1sccc1C)C(=O)c1cc(C)[nH]c(=O)c1 [Compound GHF-201]
safety (mice): safe
Human-equivalent Cmax (mouse Cmax divided by 12) ([1]; intravenous, 250 mg/kg, FDA human equivalent dose calculation): 392 ng/mL
Cmax ([1]; mouse, APBD modeling mice, IV 250 mg/kg): 4700 ng/mL
bioavailability increase in all tissues ([2]; orally administered in formulation vs subcutaneous injections of GHF-201 in solution, APBD model mice): at least three-fold
distribution to the muscle [2, 4]: negligible
dwell time and persistence in the liver [2, 4]: > 3 h
persistence in brain and heart [2, 4]: 1 h
Cmax ([3]; patient 1): 894 ng/mL
Cmax ([3]; patient 2): 883 ng/mL
Areas Under the Curve (AUC) ([3]; patients 1 and 2, sum of trapezoids): correlated with the level of compound GHF-201 administered
pre-administration levels in the plasma ([3]; patients, three consecutive days): increased every consecutive day
